Results reported in patent US7674810B2, “1,1-dioxo-1H-1Λ6-benzo[d]isothiazol-3-yl)-4-hydroxy-1,5-dihydro-pyrrol-2-one inhibitors of HCV polymerase” (Roche Palo Alto LLC, priority 2006, dated 2010).

tested on: not given; assay: not given; conditions: not given

melting point	SMILES
206 to 209 °C	CC(C)CCc1nc(C2=NS(=O)(=O)c3ccccc32)c(O)c2ccccc12
> 275 °C	O=S1(=O)N=C(c2nc(Cc3ccc(F)cc3)c3ccc(F)cc3c2O)c2cccc(Cl)c21
194 to 196 °C	COc1ccc(-c2cccc3c2S(=O)(=O)N=C3c2nc(Cc3ccc(F)cc3)c3ccccc3c2O)cn1
235 to 238 °C	O=C1C(C2=NS(=O)(=O)c3ccccc32)=C(O)[C@H](C2CCCCC2)N1Cc1ccc(F)cc1.[Na]
200 °C (dec.)	CC(C)C[C@@H]1C(O)=C(C2=NS(=O)(=O)c3ccccc32)C(=O)N1Cc1ccc(F)cc1
85 to 92 °C	O=C1C(C2=NS(=O)(=O)c3ccccc32)=C(O)[C@H](Cc2ccccc2)N1Cc1ccc(F)cc1
> 250 °C	COc1ncc(-c2cccc3c2S(=O)(=O)N=C3C2=C(O)[C@H](C(C)(C)C)N(Cc3ccc(F)cc3)C2=O)cn1
102 to 105 °C	CC(C)(C)[C@H]1C(O)=C(C2=NS(=O)(=O)c3c(CNS(=O)(=O)C4CC4)cccc32)C(=O)N1Cc1ccc(F)cc1
224 to 235 °C	COc1cccc2c1S(=O)(=O)N=C2C1=C(O)[C@H](C(C)(C)C)N(Cc2ccc(F)cc2)C1=O
224 to 230 °C	CC(C)(C)[C@H]1C(O)=C(C2=NS(=O)(=O)c3c(CN4CCCS4(=O)=O)cccc32)C(=O)N1Cc1ccc(F)cc1
121 to 126 °C	COc1cc(CN2C(=O)C(C3=NS(=O)(=O)c4c(CNS(C)(=O)=O)cccc43)=C(O)[C@@H]2C(C)(C)C)ccc1F
185 to 190 °C	CN(C)C(=O)CNc1cccc2c1S(=O)(=O)N=C2C1=C(O)[C@H](C(C)(C)C)N(Cc2ccc(F)cc2)C1=O
175 to 180 °C	CNC(=O)CNCc1cccc2c1S(=O)(=O)N=C2C1=C(O)[C@H](C(C)(C)C)N(Cc2ccc(F)cc2)C1=O
245 to 250 °C	CC(C)(C)[C@H]1C(O)=C(C2=NS(=O)(=O)c3c(NS(C)(=O)=O)cccc32)C(=O)N1Cc1ccc(F)cc1
> 210 °C	CNC(=O)COc1cccc2c1S(=O)(=O)N=C2C1=C(O)[C@H](C(C)(C)C)N(Cc2ccc(F)cc2)C1=O
138 to 159 °C	CC(C)(C)[C@H]1C(O)=C(C2=NS(=O)(=O)c3c(CNS(C)(=O)=O)cccc32)C(=O)N1Cc1ccc(F)c(Br)c1
98 to 99.8 °C	CCC(=O)N(Cc1cccc2c1S(=O)(=O)N=C2C1=C(O)[C@H](C(C)(C)C)N(Cc2ccc(F)c(C)c2)C1=O)S(C)(=O)=O

SMILES	melting point
Cc1nc(S(=O)(=O)NCc2cccc3c2S(=O)(=O)N=C3C2=C(O)[C@H](C(C)(C)C)N(Cc3ccc(F)cc3)C2=O)cn1C.O=C(O)C(F)(F)F	110 to 116 °C
CC(C)(C)[C@H]1C(O)=C(C2=NS(=O)(=O)c3c(OCS(C)(=O)=O)cccc32)C(=O)N1Cc1ccc(F)cc1 [II-81, (S)-5-tert-Butyl-1-(4-fluoro-benzyl)-4-hydroxy-3-(7-methanesulfonylmethoxy-1,1-dioxo-1H-1λ^6-benzo[d]isothiazol-3-yl)-1,5-dihydro-pyrrol-2-one]	143 to 151 °C
CC(C)(C)[C@H]1C(O)=C(C2=NS(=O)(=O)c3c(CNS(=O)(=O)N4CCNCC4)cccc32)C(=O)N1Cc1ccc(F)cc1.O=C(O)C(F)(F)F [II-91, Piperazine-1-sulfonic acid {3-[(S)-5-tert-butyl-1-(4-fluoro-benzyl)-4-hydroxy-2-oxo-2,5-dihydro-1H-pyrrol-3-yl]-1,1-dioxo-1H-1λ^6-benzo[d]isothiazol-7-ylmethyl}-amide; compound with trifluoro-acetic acid]	95 to 115 °C

tested on: Renilla luciferase HCV replicon cells (2209-23); assay: Renilla luciferase Assay (HCV replicon); type: cell-based, HCV; human hepatoma Huh7 cells; conditions: 72 h; replicon cell line 2209-23, three days incubation; read-out: R. luciferase Activity IC50

SMILES	IC50 [nM]
Cc1cc(CN2C(=O)C(C3=NS(=O)(=O)c4c(CNS(C)(=O)=O)cccc43)=C(O)C2C(C)(C)C)ccc1F (centres unmarked) [II-38, N-{3-[5-tert-Butyl-1-(4-fluoro-3-methyl-benzyl)-4-hydroxy-2-oxo-2,5-dihydro-1H-pyrrol-3-yl]-1,1-dioxo-1H-1λ^6-benzo[d]isothiazol-7-ylmethyl}-methanesulfonamide]	35
CC(C)(C)[C@H]1C(O)=C(C2=NS(=O)(=O)c3c(CNS(N)(=O)=O)cccc32)C(=O)N1Cc1ccc(F)cc1 [II-41, Amino-sulfonic acid {3-[(S)-5-tert-butyl-1-(4-fluoro-benzyl)-4-hydroxy-2-oxo-2,5-dihydro-1H-pyrrol-3-yl]-1,1-dioxo-1H-1λ^6-benzo[d]isothiazol-7-ylmethyl}-amide]	58
CC(C)(C)[C@H]1C(O)=C(C2=NS(=O)(=O)c3c(OCS(N)(=O)=O)cccc32)C(=O)N1Cc1ccc(F)cc1 [II-64, {3-[(S)-5-tert-Butyl-1-(4-fluoro-benzyl)-4-hydroxy-2-oxo-2,5-dihydro-1H-pyrrol-3-yl]-1,1-dioxo-1H-1λ^6-benzo[d]isothiazol-7-yloxy}-methanesulfonamide]	228
Cc1cc(CN2C(=O)C(C3=NS(=O)(=O)c4c(CN(C)S(C)(=O)=O)cccc43)=C(O)[C@@H]2C(C)(C)C)ccc1F [II-77, N-{3-[(S)-5-tert-Butyl-1-(4-fluoro-3-methyl-benzyl)-4-hydroxy-2-oxo-2,5-dihydro-1H-pyrrol-3-yl]-1,1-dioxo-1H-1λ^6-benzo[d]isothiazol-7-ylmethyl}-N-methyl-methanesulfonamide]	129
CC(C)(C)[C@H]1C(O)=C(C2=NS(=O)(=O)c3c(OCS(C)(=O)=O)cccc32)C(=O)N1Cc1ccc(F)cc1 [II-81, (S)-5-tert-Butyl-1-(4-fluoro-benzyl)-4-hydroxy-3-(7-methanesulfonylmethoxy-1,1-dioxo-1H-1λ^6-benzo[d]isothiazol-3-yl)-1,5-dihydro-pyrrol-2-one]	235
CC(C)(C)[C@H]1C(O)=C(C2=NS(=O)(=O)c3c(CNS(=O)(=O)N4CCNCC4)cccc32)C(=O)N1Cc1ccc(F)cc1.O=C(O)C(F)(F)F [II-91, Piperazine-1-sulfonic acid {3-[(S)-5-tert-butyl-1-(4-fluoro-benzyl)-4-hydroxy-2-oxo-2,5-dihydro-1H-pyrrol-3-yl]-1,1-dioxo-1H-1λ^6-benzo[d]isothiazol-7-ylmethyl}-amide; compound with trifluoro-acetic acid]	143
